Source: patent US20220267272A1, “PYRIDINIUM SALT AND PEST CONTROL AGENT” (Nippon Soda Co., Ltd., priority 2019, published 2022)
Counter-ions that a name gives are not always drawn. Like-named read-outs stand apart in the source and are kept apart here. One block for each compound: values may come before it.

How the values were obtained:
[1] = system: Mythimna separata; experiment: Efficacy test (2) against Mythimna separata (corn leaf disc); type: in vivo; conditions: foliar, 144 h, 125 ppm by mass, corn leaf disc immersed 30 seconds, second-instar larvae, 25° C., humidity 60%, after six days
Method: (§1) 5 parts by mass of a compound according to the present invention, 93.6 parts of dimethylformamide, and 1.4 parts of polyoxyethylene alkyl aryl ether were mixed and dissolved to obtain an emulsion (1) containing 5% by mass of the active ingredient.
The emulsion (1) was diluted with water such that the amount of the compound according to the present invention became 125 ppm by mass. A corn leaf disc was immersed in the diluted solution for 30 seconds. The corn leaf disc was put in a petri dish, and five second-instar larvae of Mythimna separata were left therein. The petri dish was placed in a thermostatic chamber at a temperature of 25° C. and a humidity of 60%. After six days had passed from leaving the larvae, life or death was assessed and the mortality was calculated. The test was repeated twice.

[2] = system: Spodoptera litura; experiment: Efficacy test against Spodoptera litura (cabbage leaf disc); type: in vivo; conditions: foliar, 144 h
Method: as §1
The emulsion (1) was diluted with water such that the amount of the compound according to the present invention became 125 ppm by mass. A cabbage leaf disc was immersed in the diluted solution for 30 seconds. The cabbage leaf disc was air-dried and then put in a petri dish, followed by leaving five second-instar larvae of Spodoptera litura therein. The petri dish was placed in a thermostatic chamber at a temperature of 25° C. and a humidity of 60%. After six days had passed from leaving the larvae, life or death was assessed and the mortality was calculated. The test was repeated twice.

[3] = system: Plutella xylostella; experiment: Efficacy test against Plutella xylostella (cabbage leaf disc); type: in vivo; conditions: foliar, 72 h, 125 ppm by mass, cabbage leaf disc immersed 30 seconds, second-instar larvae, 25° C., humidity 60%, after three days
[4] = system: Helicoverpa armigera; experiment: Efficacy test against Helicoverpa armigera (cabbage leaf disc); type: in vivo; conditions: foliar, 144 h
[5] = 125 ppm by mass, cabbage leaf disc immersed 30 seconds, second-instar larvae, 25° C., humidity 60%, after six days, read-out: mortality

Compound: O=C([N-][n+]1ccccc1)c1ccc(/C=C/c2ccc(C(F)(F)F)cc2)cc1 [Compound C1-31, (E)-Pyridin-1-ium-1-yl(4-(4-(trifluoromethyl)styryl)benzoyl)amide]
- mortality at 125 ppm [1]: ≥ 80%
- mortality at 125 ppm [2, 5]: ≥ 80%
- mortality at 125 ppm [3]: ≥ 80%

- melting point: 140 to 144 °C
Compound: Cc1cccc[n+]1[N-]C(=O)c1ccc(C2CC2c2ccc(Cl)cc2)cc1 (stereo not shown) [Compound C2-3]

Compound: O=C([N-][n+]1ccccc1)c1ccc(/C=C/C(F)(F)F)cc1 [Compound C1-25, 1-(4-((1E)-3,3,3-trifluoro-1-propen-1-yl)benzamide)pyridinium intramolecular salt]
- mortality at 125 ppm [2, 5]: ≥ 80%

- melting point: 132 to 134 °C
Compound: O=C([N-][n+]1ccccc1)c1ccc(SCC(F)(F)C(F)(F)C(F)(F)C(F)(F)C(F)(F)F)cc1 (as salt: salt) [Compound C1-18, 1-(4-((2,2,3,3,4,4,5,5,6,6,6-undecafluorohexyl)thio)benzamide) pyridinium intramolecular salt]

- melting point: 111 to 113 °C
Compound: O=C([N-][n+]1ccccc1)c1ccc(Oc2ccc(OC(F)(F)F)cc2)cc1 [Compound C1-8, pyridin-1-ium-1-yl(4-(4-(trifluoromethoxy)phenoxy)benzoyl)amide]

Compound: O=C([N-][n+]1ccccc1)c1ccc(C(=O)c2ccc(OC(F)(F)F)cc2)cc1 [Compound C1-30, 1-(4-(4-(trifluoromethoxy)benzoyl)benzamide)pyridinium intramolecular salt]
- mortality at 125 ppm [3]: ≥ 80%

Compound: O=C([N-][n+]1ccccc1)c1ccc(C2CC2c2ccc(C(F)(F)F)cc2)cc1 (stereo not shown) [Compound C2-2]
- mortality at 125 ppm [2, 5]: ≥ 80%
- mortality at 125 ppm [4, 5]: ≥ 80%

- melting point: 183 to 184 °C
Compound: CC(C)(C)OC(=O)N(Cc1ccc(OC(F)(F)F)cc1)c1ccc(C(=O)[N-][n+]2ccccc2)cc1 [Compound C2-9]

Compound: O=C([N-][n+]1ccccc1)c1ccc(C2CC2c2ccc(Cl)cc2)cc1 (stereo not shown) [Compound C2-4]
- mortality at 125 ppm [1]: ≥ 80%

Compound: CC(C)(C)OC(=O)Nc1ccc(C(=O)[N-][n+]2ccccc2)cc1 [Compound C1-57, (4-((tert-butoxycarbonyl)amino)benzoyl)(pyridin-1-ium-1-yl)amide]
- melting point: 251 to 253 °C

- melting point: 142 to 143 °C
Compound: O=C([N-][n+]1ccccc1)c1ccc(/C=N/OCC(F)(F)F)cc1 [Compound C1-5, (E)-pyridin-1-ium-1-yl(4-(((2,2,2-trifluoroethoxy)imino)methyl)benzoyl)amide]

Compound: O=C([N-][n+]1ccccc1)c1ccc(C2CC2c2ccc(OC(F)(F)F)cc2)cc1 (stereo not shown) [Compound C2-1]
- mortality at 125 ppm [2, 5]: ≥ 80%
- mortality at 125 ppm [4, 5]: ≥ 80%

- melting point: 180 to 183 °C
Compound: O=C([N-][n+]1ccccc1)c1ccc(Cc2ccc(C(F)(F)F)cc2)cc1 [Compound C1-7, pyridin-1-ium-1-yl(4-(4-(trifluoromethyl)benzyl)benzoyl)amide]

Compound: O=C([N-][n+]1ccccc1)c1ccc(C#Cc2ccc(C(F)(F)F)cc2)cc1 [Compound C1-29, pyridin-1-ium-1-yl(4-((4-(trifluoromethyl)phenyl)ethynyl)benzoyl) amide]
- mortality at 125 ppm [1]: ≥ 80%
- mortality at 125 ppm [2, 5]: ≥ 80%
- mortality at 125 ppm [3]: ≥ 80%

Compound: O=C([N-][n+]1ccccc1)c1ccc(OC(F)(F)C(F)OC(F)(F)C(F)(F)C(F)(F)F)cc1 (stereo not shown) [Compound C1-11, 1-(4-(1,1,2-trifluoro-2-(perfluoropropoxy)ethoxy)benzamide) pyridinium intramolecular salt]
- mortality at 125 ppm [2]: ≥ 80%
- mortality at 125 ppm [4]: ≥ 80%

- melting point: 204 to 206 °C
Compound: Cl.O=C(N[n+]1ccccc1)c1ccc(NCc2ccc(OC(F)(F)F)cc2)cc1.[Cl-]

- melting point: 281 to 283 °C
Compound: O=C([N-][n+]1ccccc1)c1ccc(C(=O)Nc2ccc(OC(F)(F)F)cc2)cc1 [Compound C1-1, pyridin-1-ium-1-yl(4-((4-(trifluoromethoxy)phenyl)carbamoyl)benzoyl)amide]

- melting point: 199 to 203 °C
Compound: O=C([N-][n+]1ccccc1)c1ccc(NS(=O)(=O)c2ccc(C(F)(F)F)cc2)cc1

Compound: O=C([N-][n+]1ccccc1)c1ccc(/C=C/c2ccc(OC(F)(F)F)cc2)cc1 [Compound C2-5]
- mortality at 125 ppm [2, 5]: ≥ 80%
- mortality at 125 ppm [3]: ≥ 80%

- melting point: 101 to 104 °C
Compound: O=C([N-][n+]1ccccc1)c1ccc(OC/C=C\Cl)cc1 [Compound C2-7]

- melting point: 287 to 289 °C
Compound: O=C([N-][n+]1ccccc1)c1ccc(NC(=O)c2ccc(C(F)(F)F)cc2)cc1

Compound: O=C([N-][n+]1ccccc1)c1ccc(OCC(F)(F)C(F)(F)C(F)(F)C(F)(F)F)cc1 [Compound C1-19, 1-(4-(2,2,3,3,4,4,5,5,5-nonafluoropentoxy)benzamide)pyridinium intramolecular salt]
- mortality at 125 ppm [2]: ≥ 80%

- melting point: 161 to 162 °C
Compound: O=C([N-][n+]1ccccc1)c1ccc(OC/C=C/Cl)cc1 [Compound C2-8]
